As a reminder, the EC50 is the concentration at which the effect is half-maximal.

The experiment addresses T1, sGC α1/β1 heterodimer (Homo sapiens, UniProt Q02108+Q02153).
T1 construct: expressed in transfected cells; host or cells: CHO-K1 (clone #7, CHO-K1/sGC)
T1 sequence (Q02108 1-690): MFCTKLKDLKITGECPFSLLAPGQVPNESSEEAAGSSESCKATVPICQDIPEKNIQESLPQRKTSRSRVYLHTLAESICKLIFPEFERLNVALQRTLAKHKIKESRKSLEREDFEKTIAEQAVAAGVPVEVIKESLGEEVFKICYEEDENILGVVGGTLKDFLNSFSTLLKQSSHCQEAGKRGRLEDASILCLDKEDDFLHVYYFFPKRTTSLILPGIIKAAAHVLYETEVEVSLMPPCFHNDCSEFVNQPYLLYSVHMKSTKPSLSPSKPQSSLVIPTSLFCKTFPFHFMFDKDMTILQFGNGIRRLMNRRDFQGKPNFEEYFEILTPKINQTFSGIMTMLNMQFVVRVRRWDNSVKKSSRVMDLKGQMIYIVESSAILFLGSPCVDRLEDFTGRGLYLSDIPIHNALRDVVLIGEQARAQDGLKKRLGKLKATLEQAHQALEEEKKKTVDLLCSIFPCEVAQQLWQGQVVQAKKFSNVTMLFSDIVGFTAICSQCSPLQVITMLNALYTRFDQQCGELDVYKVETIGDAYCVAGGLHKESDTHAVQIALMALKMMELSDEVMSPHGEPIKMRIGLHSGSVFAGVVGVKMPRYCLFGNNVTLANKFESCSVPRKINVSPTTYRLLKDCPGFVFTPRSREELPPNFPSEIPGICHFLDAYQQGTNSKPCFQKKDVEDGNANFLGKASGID
T1 sequence (Q02153 1-619): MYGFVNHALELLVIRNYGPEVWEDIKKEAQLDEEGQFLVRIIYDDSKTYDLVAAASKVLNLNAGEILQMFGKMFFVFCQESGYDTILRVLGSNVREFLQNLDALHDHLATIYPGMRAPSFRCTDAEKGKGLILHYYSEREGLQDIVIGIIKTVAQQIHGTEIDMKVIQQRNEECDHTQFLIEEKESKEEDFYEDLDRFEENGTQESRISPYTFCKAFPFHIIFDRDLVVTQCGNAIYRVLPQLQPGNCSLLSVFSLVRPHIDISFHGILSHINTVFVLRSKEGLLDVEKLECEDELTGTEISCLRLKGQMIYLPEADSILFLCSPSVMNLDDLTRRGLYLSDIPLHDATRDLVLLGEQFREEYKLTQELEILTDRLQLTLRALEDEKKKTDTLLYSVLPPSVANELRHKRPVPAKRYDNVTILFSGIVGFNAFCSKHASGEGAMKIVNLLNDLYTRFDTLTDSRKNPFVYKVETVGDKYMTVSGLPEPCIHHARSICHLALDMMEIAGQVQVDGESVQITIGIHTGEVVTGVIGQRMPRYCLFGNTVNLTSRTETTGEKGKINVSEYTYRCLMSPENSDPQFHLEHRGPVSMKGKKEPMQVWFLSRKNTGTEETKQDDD
The experiment is described as follows: Cell-based sGC functional assay (CASA assay): cGMP generation in CHO-K1/sGC cells, HTRF detection. The conditions noted are these: for Emax: CHO-K1, percent activation relative to standard Compound A in CHO-K1/sGC cells, read-out: % Act.; for EC50: inflection point (IP) of cGMP generation in CHO-K1/sGC cells, 4P fit, activity expressed as percentage of Compound A. The essentials: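 Stable CHO-K1/sGC cells in EBSS buffer with 5 mM MgCl2, 0.05% BSA and 0.5 mM IBMX were incubated with compound (2.5% DMSO final) ±1 μM DETA-NO for 1 hr at 37° C. cGMP was measured by HTRF. Activation is expressed as % of reference HDA Compound A maximum, with IP and max fold induction from a 4P fit.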
(In TR-FRET formats the signal depends on donor and acceptor labels being close together.)

Consider `CC(F)(F)c1ccc(C2(C)C(=O)Nc3nc(-c4cn5ccnc5c(CCCC(F)(F)F)n4)nc(N)c32)cn1` (single isomer, unassigned) [Example 380B, 4-amino-5-(6-(1,1-difluoroethyl)pyridin-3-yl)-5-methyl-2-(8-(4,4,4-trifluorobutyl)imidazo[1,2-a]pyrazin-6-yl)-5H-pyrrolo[2,3-d]pyrimidin-6(7H)-one], for which the Emax turned out to be 181% and the EC50 was determined as 35 nM.
Take `CC1(c2ccc(F)cc2)C(=O)Nc2nc(-c3cn4ccnc4c(CCc4ccccc4F)n3)nc(N)c21` (stereo not shown) [Example 3A, 4-amino-2-(8-(2-fluorophenethyl)imidazo[1,2-a]pyrazin-6-yl)-5-(4-fluorophenyl)-5-methyl-5H-pyrrolo[2,3-d]pyrimidin-6(7H)-one]: the Emax was 139% and a half-maximal effect (EC50) was put at 19 nM.
For `CC1(c2ccc(F)cc2)C(=O)Nc2nc(-c3cn4ccnc4c(CCc4cccc(F)c4)n3)nc(N)c21` (stereo not shown) [Example 4A, 4-amino-2-(8-(3-fluorophenethyl)imidazo[1,2-a]pyrazin-6-yl)-5-(4-fluorophenyl)-5-methyl-5H-pyrrolo[2,3-d]pyrimidin-6(7H)-one], the Emax was found to be 123% and the EC50 was 32 nM.
For the compound `CC1(c2ccc(F)cc2)C(=O)Nc2nc(-c3cn4ccnc4c(CCCc4ccccc4)n3)nc(N)c21` (stereo not shown) [Example 5A], the Emax came out at 109% and the EC50 worked out at 849 nM.
Turning to `CC1(c2ccc(F)cc2)C(=O)Nc2nc(-c3cn4ccnc4c(-c4ccc(C5CC5)cc4)n3)nc(N)c21` (stereo not shown) [Example 6A, 4-amino-2-(8-(4-cyclopropylphenyl)imidazo[1,2-a]pyrazin-6-yl)-5-(4-fluorophenyl)-5-methyl-5H-pyrrolo[2,3-d]pyrimidin-6(7H)-one], the Emax is 115% and it took 559 nM to reach a half-maximal effect (EC50).
`COc1ccc(-c2nc(-c3nc(N)c4c(n3)NC(=O)C4(C)c3ccc(F)cc3)cn3ccnc23)cc1` (stereo not shown) [Example 7A, 4-amino-5-(4-fluorophenyl)-2-(8-(4-methoxyphenyl)imidazo[1,2-a]pyrazin-6-yl)-5-methyl-5H-pyrrolo[2,3-d]pyrimidin-6(7H)-one]: the Emax came out at 63% and a half-maximal response (EC50) required 583 nM.
In the case of `CCC(CC)Cc1nc(-c2nc(N)c3c(n2)NC(=O)C3(C)c2ccc(Cl)cc2)cn2ccnc12` (stereo not shown) [Example 9A, 4-amino-5-(4-chlorophenyl)-2-(8-(2-ethylbutyl)imidazo[1,2-a]pyrazin-6-yl)-5-methyl-5H-pyrrolo[2,3-d]pyrimidin-6(7H)-one], the Emax is 134% and the response was half-maximal at 60 nM (EC50).
In the same order, the values of `CC1(c2ccc(F)cc2)C(=O)Nc2nc(-c3cn4ccnc4c(CCC4CCCCC4)n3)nc(N)c21` (stereo not shown) [Example 12A, 4-amino-2-(8-(2-cyclohexylethyl)imidazo[1,2-a]pyrazin-6-yl)-5-(4-fluorophenyl)-5-methyl-5H-pyrrolo[2,3-d]pyrimidin-6(7H)-one] are 142% and 53 nM.
Regarding `CCC(CC)Cc1nc(-c2nc(N)c3c(n2)NC(=O)C3(C)c2ccc(F)cc2)cn2ccnc12` (stereo not shown) [Example 13A, 4-amino-2-(8-(2-ethylbutyl)imidazo[1,2-a]pyrazin-6-yl)-5-(4-fluorophenyl)-5-methyl-5H-pyrrolo[2,3-d]pyrimidin-6(7H)-one], the Emax worked out at 114% and a half-maximal effect (EC50) was put at 42 nM.
On the same counts, the results for `CCCc1nc(-c2nc(N)c3c(n2)NC(=O)C3(C)c2ccc(F)cc2)cn2ccnc12` (stereo not shown) [Example 17A, 4-amino-5-(4-fluorophenyl)-5-methyl-2-(8-propylimidazo[1,2-a]pyrazin-6-yl)-5H-pyrrolo[2,3-d]pyrimidin-6(7H)-one] are 124% and 157 nM.
As to `CCC(CC)Cc1nc(-c2nc(N)c3c(n2)NC(=O)C3(C)c2ccc(F)cn2)cn2ccnc12` (stereo not shown) [Example 18B, 4-amino-2-(8-(2-ethylbutyl)imidazo[1,2-a]pyrazin-6-yl)-5-(5-fluoropyridin-2-yl)-5-methyl-5H-pyrrolo[2,3-d]pyrimidin-6(7H)-one], the Emax worked out at 106% and the EC50 worked out at 145 nM.

Source of the values: US9796733B2, “Imidazo-pyrazine derivatives useful as soluble guanylate cyclase activators” (Merck Sharp & Dohme Corp., priority 2014, dated 2017).
